# Laboratory results taken from patent publication US20260138976A1 (Hoffmann-La Roche Inc., priority 2022, published 2026).
# Experiments:
# [1] = target: T1, DGKα (hDGKalpha(1-735)-N-His) (Homo sapiens, UniProt P23743); assay: In vitro DGK inhibition assay, DGKalpha ADP Glo (in house); assay type: biochemical; settings: 4 nM DGKα, 25 μM ATP, 125 uM DLG in liposomes, 1 hour reaction
# T1 construct: hDGKalpha(1-735)-N-His; His (N); made in house; host or cells: Sf21 insect cells (baculovirus)
# Procedure, shortened: (§1)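 Full-length His-tagged human DGKα (4 nM) or DGKζ (2 nM), expressed in Sf21 cells, phosphorylated 125 µM DLG in PS/PC liposomes with ATP at 25 µM (α) or 50 µM (ζ) for 1 h. ADP was measured by ADP-Glo luminescence. Compounds were tested as 11-point 1:3 series in 2% DMSO.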
# [2] = target: T2, DGKζ (hDGKzeta(1-928)-N-His) (Homo sapiens, UniProt Q13574); assay: In vitro DGK inhibition assay, DGKzeta ADP Glo (in house); assay type: biochemical; settings: 2 nM DGKζ, 50 μM ATP, 125 uM DLG in liposomes, 1 hour reaction
# T2 construct: hDGKzeta(1-928)-N-His; His (N); made in house; host or cells: Sf21 insect cells (baculovirus)
# T2 sequence (Q13574 whole entry): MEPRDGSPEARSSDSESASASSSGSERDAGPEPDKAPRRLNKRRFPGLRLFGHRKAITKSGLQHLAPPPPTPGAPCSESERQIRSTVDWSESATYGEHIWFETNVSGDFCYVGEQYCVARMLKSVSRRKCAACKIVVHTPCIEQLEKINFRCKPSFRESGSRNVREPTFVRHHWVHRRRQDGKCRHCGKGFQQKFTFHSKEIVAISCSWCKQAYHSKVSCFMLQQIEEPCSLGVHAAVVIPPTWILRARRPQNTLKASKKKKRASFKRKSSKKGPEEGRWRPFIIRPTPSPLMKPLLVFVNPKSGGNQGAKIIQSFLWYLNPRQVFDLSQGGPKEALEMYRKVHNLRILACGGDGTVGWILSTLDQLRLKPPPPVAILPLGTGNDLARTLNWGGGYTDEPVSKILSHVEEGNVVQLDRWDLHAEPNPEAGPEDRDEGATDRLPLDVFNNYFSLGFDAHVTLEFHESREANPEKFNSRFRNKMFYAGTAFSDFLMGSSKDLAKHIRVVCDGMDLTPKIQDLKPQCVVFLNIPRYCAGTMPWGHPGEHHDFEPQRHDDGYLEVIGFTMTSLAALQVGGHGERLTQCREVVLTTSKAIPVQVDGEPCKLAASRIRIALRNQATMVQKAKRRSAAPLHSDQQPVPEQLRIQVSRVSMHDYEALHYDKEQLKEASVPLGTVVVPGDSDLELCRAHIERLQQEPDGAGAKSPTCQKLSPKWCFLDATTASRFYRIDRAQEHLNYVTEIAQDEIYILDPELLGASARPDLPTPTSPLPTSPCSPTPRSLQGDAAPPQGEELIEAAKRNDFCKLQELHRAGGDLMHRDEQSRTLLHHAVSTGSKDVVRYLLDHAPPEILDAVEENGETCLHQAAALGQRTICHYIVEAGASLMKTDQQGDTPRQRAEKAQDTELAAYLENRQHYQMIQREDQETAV
# Procedure, shortened: as §1
# primary human T-cells = assay: IL2 secretion measurements (24 h, CD3-stimulated T-cells, PBS counter screen); assay type: cell-based; settings: for Emax IL2 (% activation): CD3 condition, normalised to DMSO (neutral) and 20 μM reference compound A1 = 100%; for EC50: Homo sapiens, T-cell, CD3-stimulated primary human T-cells, IL2 secretion, fitted sigmoidal curve, read-out: Tcell IL2 CD3 EC50
# Procedure, shortened: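 Expanded primary human T-cells (100k/well) were plated on anti-CD3-coated or PBS-only plates with compound in a 5–6 point dose response (top 20 or 10 μM final, 3.333-fold, 0.2% DMSO). IL-2 in 24 h supernatants was quantified by ProQuantum immunoassay or ELISA. Values were normalized to DMSO and 20 μM reference compound A1 (100%), giving EC50 and Emax.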
# T1 sequence (P23743 whole entry): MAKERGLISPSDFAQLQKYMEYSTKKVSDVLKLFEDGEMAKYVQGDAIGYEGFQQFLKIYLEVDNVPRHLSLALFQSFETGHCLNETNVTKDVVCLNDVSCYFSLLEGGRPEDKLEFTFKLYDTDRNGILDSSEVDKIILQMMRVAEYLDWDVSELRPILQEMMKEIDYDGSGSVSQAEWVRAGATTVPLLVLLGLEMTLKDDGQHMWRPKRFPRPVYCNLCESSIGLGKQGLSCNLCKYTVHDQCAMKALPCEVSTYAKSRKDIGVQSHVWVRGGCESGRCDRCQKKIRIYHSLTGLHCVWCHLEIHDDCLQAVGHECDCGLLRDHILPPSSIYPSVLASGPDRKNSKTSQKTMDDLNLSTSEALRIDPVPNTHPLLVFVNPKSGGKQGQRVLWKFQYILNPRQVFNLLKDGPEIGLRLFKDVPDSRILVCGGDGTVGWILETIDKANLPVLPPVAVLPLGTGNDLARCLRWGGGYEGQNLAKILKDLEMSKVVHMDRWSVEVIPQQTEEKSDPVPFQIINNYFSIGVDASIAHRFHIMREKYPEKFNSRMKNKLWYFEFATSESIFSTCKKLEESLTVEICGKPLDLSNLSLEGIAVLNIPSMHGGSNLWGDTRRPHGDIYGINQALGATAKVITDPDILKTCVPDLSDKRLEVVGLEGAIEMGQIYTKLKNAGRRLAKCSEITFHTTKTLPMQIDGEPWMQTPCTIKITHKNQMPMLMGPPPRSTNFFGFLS
IC50 [1] [µM],IC50 [2] [µM],Structure (SMILES),Emax IL2 (% activation) (primary human T-cells),EC50 (primary human T-cells) [µM]
> 62.5,0.642,"Cc1nc(F)ccc1-c1nc(-c2ccc3c(c2)N(Cc2ccc(-c4noc(C5CC5)n4)cc2)C(=O)[C@@H](N)CS3(=O)=O)no1 [Example 86, (3R)-3-amino-5-[[4-(5-cyclopropyl-1,2,4-oxadiazol-3-yl)phenyl]methyl]-7-[5-(6-fluoro-2-methyl-3-pyridyl)-1,2,4-oxadiazol-3-yl]-1,1-dioxo-2,3-dihydro-1λ^6,5-benzothiazepin-4-one]",101,4.16
> 62.5,2.31,"N[C@H]1CS(=O)(=O)c2ccc(-c3noc(-c4cccnc4C(F)(F)F)n3)cc2N(Cc2ccc(-c3noc(C4CC4)n3)cc2)C1=O [Example 87, (3R)-3-amino-5-[[4-(5-cyclopropyl-1,2,4-oxadiazol-3-yl)phenyl]methyl]-1,1-dioxo-7-[5-[2-(trifluoromethyl)-3-pyridyl]-1,2,4-oxadiazol-3-yl]-2,3-dihydro-1λ^6,5-benzothiazepin-4-one]",16,> 10
8.27,0.613,"CC(C)(C)c1nnc(-c2ccc3c(c2)N(Cc2ccc(-c4nc(C(F)(F)F)co4)cc2)C(=O)[C@@H](N)CS3(=O)=O)o1 [Example 89, (3R)-3-amino-7-(5-tert-butyl-1,3,4-oxadiazol-2-yl)-1,1-dioxo-5-[[4-[4-(trifluoromethyl)oxazol-2-yl]phenyl]methyl]-2,3-dihydro-1λ^6,5-benzothiazepin-4-one]",182,0.377
4.24,3.01,"CC(C)(C)c1nnc(-c2ccc3c(c2)N(Cc2ccc(-n4cnc(C(F)(F)F)n4)cc2)C(=O)[C@@H](N)CS3(=O)=O)o1 [Example 91, (3R)-3-amino-7-(5-tert-butyl-1,3,4-oxadiazol-2-yl)-1,1-dioxo-5-[[4-[3-(trifluoromethyl)-1,2,4-triazol-1-yl]phenyl]methyl]-2,3-dihydro-126,5-benzothiazepin-4-one]",113,3.6
4.68,2.08,"N[C@H]1CS(=O)(=O)c2ccc(-c3nnc(C4(C5CC5)CCCO4)o3)cc2N(Cc2ccc(-c3nnc(C(F)(F)F)o3)cc2)C1=O (stereo partly drawn) [Example 97, (3R)-3-amino-7-[5-(2-cyclopropyltetra-hydrofuran-2-yl)-1,3,4-oxadiazol-2-yl]-1,1-dioxo-5-[[4-[5-(trifluoromethyl)-1,3,4-oxadiazol-2-yl]phenyl]methyl]-2,3-dihydro-1λ6,5-benzothiazepin-4-one]",115,6.35
23.8,1.03,"CC(c1nc(-c2ccc(CN3C(=O)[C@@H](N)CS(=O)(=O)c4ccc(-c5nnc(C6(N)CCCCC6)o5)cc43)cc2)no1)C(F)(F)F (stereo partly drawn) [Example 98, (3R)-3-amino-7-[5-(1-aminocyclohexyl)-1,3,4-oxadiazol-2-yl]-1,1-dioxo-5-[[4-[5-(2,2,2-trifluoro-1-methyl-ethyl)-1,2,4-oxadiazol-3-yl]phenyl]methyl]-2,3-dihydro-1λ^6,5-benzothiazepin-4-one]",97,1.37
> 6.25,0.767,"CC(C)(C#N)c1nnc(-c2ccc3c(c2)N(Cc2ccc(-n4ccc(C(F)(F)F)n4)cc2)C(=O)[C@@H](N)CS3(=O)=O)o1 [Example 121, 2-[5-[(3R)-3-amino-1,1,4-trioxo-5-[[4-[3-(trifluoromethyl)pyrazol-1-yl]phenyl]methyl]-2,3-dihydro-1λ^6,5-benzothiazepin-7-yl]-1,3,4-oxadiazol-2-yl]-2-methyl-propanenitrile]",207,0.732
2.4,0.801,CC(C)(C#N)c1nnc(-c2ccc3c(c2)N(Cc2ccc(-c4ccc(OC(F)(F)F)cn4)cc2)C(=O)[C@@H](N)CS3(=O)=O)o1 [Example 124],154,0.278
> 62.5,4.25,"CC1(c2nnc(-c3ccc4c(c3)N(Cc3ccc(-c5noc(C(F)(F)F)n5)cc3)C(=O)[C@@H](N)CS4(=O)=O)o2)COC1 [Example 149, (3R)-3-amino-7-[5-(3-methyloxetan-3-yl)-1,3,4-oxadiazol-2-yl]-1,1-dioxo-5-[[4-[5-(trifluoromethyl)-1,2,4-oxadiazol-3-yl]phenyl]methyl]-2,3-dihydro-1λ^6,5-benzothiazepin-4-one]",268,0.567
> 19.8,9.91,"CC1(c2nnc(-c3ccc4c(c3)N(Cc3ccc(-c5ccc(C(F)(F)F)cn5)cc3)C(=O)[C@@H](N)CS4(=O)=O)o2)COC1 [Example 150, (3R)-3-amino-7-[5-(3-methyloxetan-3-yl)-1,3,4-oxadiazol-2-yl]-1,1-dioxo-5-[[4-[5-(trifluoromethyl)-2-pyridyl]phenyl]methyl]-2,3-dihydro-1λ^6,5-benzothiazepin-4-one]",35,> 10
41.4,2.28,"C[C@@](N)(c1nnc(-c2ccc3c(c2)N(Cc2ccc(-n4ccc(C(F)(F)F)n4)cc2)C(=O)[C@@H](N)CS3(=O)=O)o1)C(F)(F)F [Example 157, (3R)-3-amino-7-[5-[(1R)-1-amino-2,2,2-trifluoro-1-methyl-ethyl]-1,3,4-oxadiazol-2-yl]-1,1-dioxo-5-[[4-[3-(trifluoromethyl)pyrazol-1-yl]phenyl]methyl]-2,3-dihydro-1λ^6,5-benzothiazepin-4-one]",106,1.78
> 62.5,1.92,"N[C@H]1CS(=O)(=O)c2ccc(-c3nnc(N4CCC(F)(F)CC4)o3)cc2N(Cc2ccc(-c3nc(C(F)(F)F)no3)cc2)C1=O [Example 161, (3R)-3-amino-7-[5-(4,4-difluoro-1-piperidyl)-1,3,4-oxadiazol-2-yl]-1,1-dioxo-5-[[4-[3-(trifluoromethyl)-1,2,4-oxadiazol-5-yl]phenyl]methyl]-2,3-dihydro-1λ^6,5-benzothiazepin-4-one]",150,3.21
> 62.5,10.6,"N#CC1CN(c2nnc(-c3ccc4c(c3)N(Cc3ccc(-c5noc(C(F)(F)F)n5)cc3)C(=O)[C@@H](N)CS4(=O)=O)o2)CCO1 (stereo partly drawn) [Example 163, 4-[5-[(3R)-3-amino-1,1,4-trioxo-5-[[4-[5-(trifluoromethyl)-1,2,4-oxadiazol-3-yl]phenyl]methyl]-2,3-dihydro-1λ^6,5-benzothiazepin-7-yl]-1,3,4-oxadiazol-2-yl]morpholine-2-carbonitrile]",152,2.39
> 62.5,2.03,"COCC1CN(c2nnc(-c3ccc4c(c3)N(Cc3ccc(-c5noc(C(F)(F)F)n5)cc3)C(=O)[C@@H](N)CS4(=O)=O)o2)CCO1 (stereo partly drawn) [Example 164, (3R)-3-amino-7-[5-[2-(methoxymethyl)morpholin-4-yl]-1,3,4-oxadiazol-2-yl]-1,1-dioxo-5-[[4-[5-(trifluoromethyl)-1,2,4-oxadiazol-3-yl]phenyl]methyl]-2,3-dihydro-1λ^6,5-benzothiazepin-4-one]",156,3.3
3.03,1.72,CC(C)(c1nnc(-c2ccc3c(c2)N(Cc2ccc(-c4noc(C(F)(F)F)n4)cc2)C(=O)[C@@H](N)CS3(=O)=O)o1)C(F)(F)F [Example 166],385,0.158
> 62.5,0.924,"CC(C)(c1nnc(-c2ccc3c(c2)N(Cc2ccc(-c4noc(C5CC5)n4)cc2)C(=O)[C@@H](N)CS3(=O)=O)o1)C(F)(F)F [Example 167, (3R)-3-amino-5-[[4-(5-cyclopropyl-1,2,4-oxadiazol-3-yl)phenyl]methyl]-1,1-dioxo-7-[5-(2,2,2-trifluoro-1,1-dimethyl-ethyl)-1,3,4-oxadiazol-2-yl]-2,3-dihydro-1λ^6,5-benzothiazepin-4-one]",279,0.635
> 19.8,1.77,CCC(O)(c1nnc(-c2ccc3c(c2)N(Cc2ccc(-c4noc(C5CC5)n4)cc2)C(=O)[C@@H](N)CS3(=O)=O)o1)C(F)(F)F (stereo partly drawn) [Example 169],128,3.17

Structure (SMILES),IC50 [1] [µM],IC50 [2] [µM],Emax IL2 (% activation) (primary human T-cells),EC50 (primary human T-cells) [µM]
"COC(=O)N1CC2CC(c3nnc(-c4ccc5c(c4)N(Cc4ccc(-c6ccc(C(F)(F)F)cn6)cc4)C(=O)[C@@H](N)CS5(=O)=O)o3)(C2)C1 [Example 159, methyl 1-[5-[(3R)-3-amino-1,1,4-trioxo-5-[[4-[5-(trifluoromethyl)-2-pyridyl]phenyl]methyl]-2,3-dihydro-1λ^6,5-benzothiazepin-7-yl]-1,3,4-oxadiazol-2-yl]-3-azabicyclo[3.1.1]heptane-3-carboxylate]",1.95,1.35,188,0.912
